26 molecules from patent US20260317356A1, “SMALL MOLECULE MODULATORS OF OGG1” (AZKARRA THERAPEUTICS, INC., priority 2023, published 2026) can be followed below.

SMILES strings stand for the structures. Where only a bound is given, the exact number is not on record here.

For this experiment, the target named is T1, nLucOGG1 in HeLa cells (Homo sapiens, UniProt O15527).
T1 construct: thermal shift read by NanoGlo luminescence
Briefly: Cellular Thermal Shift Assay to measure compound affinity for nLucOGG1 in HeLa cells (CETSA DTm). Format: cell-based. The settings on record: 10 μM compound, 37° C. 60 min, Tm vs DMSO control. The essentials: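 HeLa cells transiently nucleofected with N-terminal nLuc-OGG1a, used 48 h later; 25 k cells/well incubated with 10 μM compound or DMSO vehicle 60 min at 37° C, then heated 3 min across a 12-point 37-70° C gradient. NanoGlo luminescence normalized to 37° C, Boltzmann sigmoidal fit gives Tm; delta Tm relative to vehicle.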

T1 sequence (O15527 whole entry): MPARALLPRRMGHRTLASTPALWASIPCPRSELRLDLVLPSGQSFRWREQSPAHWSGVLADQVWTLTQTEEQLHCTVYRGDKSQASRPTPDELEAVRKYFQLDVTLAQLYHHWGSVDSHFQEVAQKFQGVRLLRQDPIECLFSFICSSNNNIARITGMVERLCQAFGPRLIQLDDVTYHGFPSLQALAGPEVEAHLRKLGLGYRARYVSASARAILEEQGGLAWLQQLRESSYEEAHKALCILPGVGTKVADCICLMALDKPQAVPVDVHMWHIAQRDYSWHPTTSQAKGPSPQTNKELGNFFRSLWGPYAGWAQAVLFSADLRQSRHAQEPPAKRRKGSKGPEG

Take `COc1ccc(NC(=O)[C@H]2CC[C@@H](N3Cc4c(C)ccc(OC)c4NC3=O)CC2)cc1C` [Example 4, (1s,4s)-N-(3-Methyl-4-methoxyphenyl)-4-(8-methoxy-5-methyl-2-oxo-1,2-dihydroquinazolin-3(4H)-yl)cyclohexanecarboxamide]: the ΔTm (in general, the shift of the melting midpoint relative to a reference) at 10 µM lay within 6 to 8 °C. The same measure for `COc1cc(NC(=O)[C@]2(C)CC[C@H](N3Cc4c(C)ccc(OC)c4NC3=O)CC2)ccc1C` [Example 13, (1s,4s)-N-(3-Methoxy-4-methylphenyl)-4-(8-methoxy-5-methyl-2-oxo-1,2-dihydroquinazolin-3(4H)-yl)-1-methylcyclohexanecarboxamide]: 8 to 10 °C. The same measure for `COc1cc(NC(=O)[C@H]2CC[C@@H](N3Cc4c(C)ccc(OC)c4NC3=O)CC2)ccc1C` [Example 47, (1s,4s)-N-(3-Methoxy-4-methylphenyl)-4-(8-methoxy-5-methyl-2-oxo-1,2-dihydroquinazolin-3(4H)-yl)cyclohexanecarboxamide]: 6 to 8 °C; for `COc1cc(NC(=O)[C@H]2CC[C@@H](N3Cc4c(C)cc(N(C)C)cc4C3=O)CC2)ccc1C` [Example 135, (1s,4s)-4-(6-(Dimethylamino)-4-methyl-1-oxoisoindolin-2-yl)-N-(3-methoxy-4-methylphenyl)cyclohexane-1-carboxamide]: 6 to 8 °C; for `COc1cc(NC(=O)[C@H]2CC[C@@H](N3Cc4c(C)cc(OCCN5CC(F)(F)C5)cc4C3=O)CC2)ccc1C` [Example 255, (1s,4s)-4-(6-(2-(3,3-Difluoroazetidin-1-yl)ethoxy)-4-methyl-1-oxoisoindolin-2-yl)-N-(3-methoxy-4-methylphenyl)cyclohexanecarboxamide]: 6 to 8 °C. Take `COc1cc(NC(=O)[C@H]2CC[C@@H](N3Cc4c(C)cc(N5CC6(COC6)C5)cc4NC3=O)CC2)ccc1C` [Example 30, (1s,4s)-N-(3-Methoxy-4-methylphenyl)-4-(5-methyl-2-oxo-7-(2-oxa-6-azaspiro[3.3]heptan-6-yl)-1,2-dihydroquinazolin-3(4H)-yl)cyclohexanecarboxamide]: the ΔTm at 10 µM lay in the range of 8 to 10 °C. Take `COc1cc(NC(=O)[C@H]2CC[C@@H](N3Cc4c(C)cc(-c5nnco5)cc4NC3=O)CC2)ccc1C` [Example 92, (1s,4s)-N-(3-methoxy-4-methylphenyl)-4-(5-methyl-7-(1,3,4-oxadiazol-2-yl)-2-oxo-1,2-dihydroquinazolin-3(4H)-yl)cyclohexanecarboxamide]: the ΔTm at 10 µM was 8 to 10 °C. For `COc1cc(NC(=O)[C@H]2CC[C@@H](N3Cc4c(C)ccc(OC5CNC5)c4NC3=O)CC2)ccc1C` [Example 45] the value was 8 to 10 °C; for `COc1cc(NC(=O)[C@H]2CC[C@@H](N3Cc4c(C)ccc(CNC(C)=O)c4NC3=O)CC2)ccc1C` [Example 17, (1s,4s)-4-(8-(Acetamidomethyl)-5-methyl-2-oxo-1,2-dihydroquinazolin-3(4H)-yl)-N-(3-methoxy-4-methylphenyl)cyclohexanecarboxamide], more than 10 °C; for `COc1cc(NC(=O)[C@H]2CC[C@@H](N3Cc4c(C)ccc(P(C)(C)=O)c4NC3=O)CC2)ccc1C` [Example 5, (1s,4s)-4-(8-(Dimethylphosphoryl)-5-methyl-2-oxo-1,2-dihydroquinazolin-3(4H)-yl)-N-(3-methoxy-4-methylphenyl)cyclohexanecarboxamide], 6 to 8 °C. The same measure for `COc1ccc(NC(=O)[C@H]2CC[C@@H](N3Cc4c(C)cccc4C3=O)CC2)cc1C` [Example 227, (1s,4s)-N-(4-Methoxy-3-methylphenyl)-4-(4-methyl-1-oxoisoindolin-2-yl)cyclohexanecarboxamide]: 6 to 8 °C. For `CNCCNc1cc(C)c2c(c1)C(=O)N([C@H]1CC[C@@H](C(=O)Nc3ccc(C)c(OC)c3)CC1)C2` [Example 193, (1s,4s)-N-(3-methoxy-4-methylphenyl)-4-(4-methyl-6-(2-(methylamino)ethylamino)-1-oxoisoindolin-2-yl)cyclohexanecarboxamide] the value was more than 10 °C.

Take `COc1ccc(NC(=O)[C@H]2CC[C@@H](N3Cc4c(C)cc(NCCN(C)C)cc4C3=O)CC2)cc1C#N` [Example 259, (1s,4s)-N-(3-Cyano-4-methoxyphenyl)-4-(6-(2-(dimethylamino)ethylamino)-4-methyl-1-oxoisoindolin-2-yl)cyclohexanecarboxamide]: the ΔTm at 10 µM is 8 to 10 °C. In the case of `COc1cc(NC(=O)[C@H]2CC[C@@H](N3Cc4c(C)ccc(C#N)c4C3=O)CC2)ccc1C` [Example 143, (1s,4s)-4-(7-Cyano-4-methyl-1-oxoisoindolin-2-yl)-N-(3-methoxy-4-methylphenyl)cyclohexanecarboxamide], the ΔTm at 10 µM was in the range of 6 to 8 °C. Take `COc1ccc(NC(=O)[C@H]2CC[C@@H](N3Cc4c(C)ccnc4NC3=O)CC2)cc1C` [Example 16, (1s,4s)-N-(4-Methoxy-3-methylphenyl)-4-(5-methyl-2-oxo-1,2-dihydropyrido[2,3-d]pyrimidin-3(4H)-yl)cyclohexanecarboxamide]: the ΔTm at 10 µM is 8 to 10 °C. The same measure for `COc1ccc(NC(=O)[C@H]2CC[C@@H](N3Cc4c(C)cc(NCCN(C)C)cc4C3=O)CC2)cc1C` [Example 256, (1s,4s)-4-(6-(2-(Dimethylamino)ethylamino)-4-methyl-1-oxoisoindolin-2-yl)-N-(4-methoxy-3-methylphenyl)cyclohexanecarboxamide]: more than 10 °C. In the case of `COc1ccc(NC(=O)[C@H]2CC[C@@H](N3Cc4c(C)cc(NCCN(C)C)cc4NC3=O)CC2)cc1C#N` [Example 99, (1s,4s)-N-(3-cyano-4-methoxyphenyl)-4-(7-(2-(dimethylamino)ethylamino)-5-methyl-2-oxo-1,2-dihydroquinazolin-3(4H)-yl)cyclohexanecarboxamide], the ΔTm at 10 µM lay within 8 to 10 °C. For `COc1cc(NC(=O)[C@H]2CC[C@@H](N3Cc4c(C)ccc(CN)c4NC3=O)CC2)ccc1C` [Example 58, (1s,4s)-4-(8-(aminomethyl)-5-methyl-2-oxo-1,2-dihydroquinazolin-3(4H)-yl)-N-(3-methoxy-4-methylphenyl)cyclohexanecarboxamide] the value was 8 to 10 °C; for `COc1cc(NC(=O)[C@H]2CC[C@@H](N3Cc4c(C)ccc(C#N)c4NC3=O)CC2)ccc1C` [Example 59, (1s,4s)-4-(8-cyano-5-methyl-2-oxo-1,2-dihydroquinazolin-3(4H)-yl)-N-(3-methoxy-4-methylphenyl)cyclohexanecarboxamide], 8 to 10 °C; for `COc1cc(NC(=O)[C@]2(C)CC[C@H](N3Cc4c(C)cccc4C3=O)CC2)ccc1C` [Example 277, (1s,4s)-N-(3-methoxy-4-methylphenyl)-1-methyl-4-(4-methyl-1-oxoisoindolin-2-yl)cyclohexane-1-carboxamide], 8 to 10 °C. As to `COc1ccc(NC(=O)[C@H]2CC[C@@H](N3Cc4c(C)ccc(OC)c4NC3=O)CC2)cc1C#N` [Example 2, (1s,4s)-N-(3-Cyano-4-methoxyphenyl)-4-(8-methoxy-5-methyl-2-oxo-1,2-dihydroquinazolin-3(4H)-yl)cyclohexanecarboxamide], the thermal shift (ΔTm) at 10 µM lay within 6 to 8 °C. For `COc1ccc(NC(=O)[C@H]2CC[C@@H](N3Cc4c(C)cc(NCCN(C)C)cc4C3=O)CC2)cc1Cl` [Example 260, (1s,4s)-N-(3-Chloro-4-methoxyphenyl)-4-(6-(2-(dimethylamino)ethylamino)-4-methyl-1-oxoisoindolin-2-yl)cyclohexanecarboxamide] the value was more than 10 °C. `COc1ccc(NC(=O)[C@]2(C)CC[C@H](N3Cc4c(C)ccc(OC)c4NC3=O)CC2)cc1C` (single isomer, unassigned) [Example 11, (1s,4s)-N-(3-methyl-4-methoxyphenyl)-4-(8-methoxy-5-methyl-2-oxo-1,2-dihydroquinazolin-3(4H)-yl)-1-methylcyclohexanecarboxamide]: the ΔTm at 10 µM was 8 to 10 °C. For `COc1cc(NC(=O)[C@H]2CC[C@@H](N3Cc4c(C)ccnc4NC3=O)CC2)ccc1C` [Example 41, (1s,4s)-N-(3-Methoxy-4-methylphenyl)-4-(5-methyl-2-oxo-1,2-dihydropyrido[2,3-d]pyrimidin-3(4H)-yl)cyclohexanecarboxamide] the value was 6 to 8 °C; for `COc1cc(NC(=O)[C@H]2CC[C@@H](N3Cc4c(C)cc(CN)cc4NC3=O)CC2)ccc1C` [Example 28, (1s,4s)-4-(7-(Aminomethyl)-5-methyl-2-oxo-1,2-dihydroquinazolin-3(4H)-yl)-N-(3-methoxy-4-methylphenyl)cyclohexanecarboxamide], more than 10 °C.

Regarding `COc1ccc(NC(=O)[C@]2(C)CC[C@H](N3Cc4c(C)ccc(OC)c4NC3=O)CC2)cc1Cl` (single isomer, unassigned) [Example 7, (1s,4s)-N-(3-chloro-4-methoxyphenyl)-4-(8-methoxy-5-methyl-2-oxo-1,2-dihydroquinazolin-3(4H)-yl)-1-methylcyclohexanecarboxamide], the ΔTm at 10 µM was 8 to 10 °C.
